Assay results as given in PMC3685428 (ACS medicinal chemistry letters, 2012).

How the values were obtained:
[1] = target: T1, recombinant P. falciparum DXR (PfDXR) (Plasmodium falciparum, UniProt O96693); assay: Enzyme inhibition of recombinant P. falciparum DXR; assay type: biochemical; settings: relative to compound 7
T1 sequence (O96693 73-488): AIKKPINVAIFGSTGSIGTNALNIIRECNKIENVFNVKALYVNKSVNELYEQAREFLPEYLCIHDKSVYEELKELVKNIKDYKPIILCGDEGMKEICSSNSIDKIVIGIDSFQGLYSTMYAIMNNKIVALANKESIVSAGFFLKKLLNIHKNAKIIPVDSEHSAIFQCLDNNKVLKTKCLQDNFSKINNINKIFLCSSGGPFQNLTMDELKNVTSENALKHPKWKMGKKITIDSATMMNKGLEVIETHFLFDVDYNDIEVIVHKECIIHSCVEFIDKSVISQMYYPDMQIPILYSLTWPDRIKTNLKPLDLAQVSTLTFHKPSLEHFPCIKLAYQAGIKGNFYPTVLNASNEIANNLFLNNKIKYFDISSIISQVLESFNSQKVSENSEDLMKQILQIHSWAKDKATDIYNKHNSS

P. falciparum Dd2 strain = assay: Proliferation of erythrocyte-stage P. falciparum, Dd2 strain; assay type: cell-based; settings: Plasmodium falciparum; for IC50: DD2, Erythrocyte, read-out: IC50 against P. falciparum proliferation, Dd2 strain
P. falciparum 3D7 strain = assay: Proliferation of erythrocyte-stage P. falciparum, 3D7 strain; assay type: cell-based; settings: Plasmodium falciparum; for IC50: 3D7, Erythrocyte, read-out: IC50 against P. falciparum proliferation, 3D7 strain
[2] = background statement, cited from earlier work
P. falciparum malaria = settings: clinical trials, in combination with clindamycin ref 7, 8; cited from earlier work

Row | SMILES | Fold more inhibitory potency than compound 7 against PfDXR [1] | IC50 (P. falciparum Dd2 strain) | IC50 (P. falciparum 3D7 strain) | EC50 (P. falciparum 3D7 strain; 3D7, read-out: EC50 against P. falciparum 3D7) | EC50 (P. falciparum Dd2 strain; DD2, read-out: EC50 against P. falciparum Dd2) | Oral availability [2] | Half life in plasma ([2]; plasma) | Clinical efficacy against P. falciparum malaria (P. falciparum malaria)
1 | CC(=O)N(O)CCC(c1ccncc1)P(=O)(O)O (centres unmarked) [5p] | ~ 6 × | 460 nM | 630 nM | 310 nM | – | – | – | –
2 | CC(=O)N(O)CCC(c1ccccc1)P(=O)(O)O (centres unmarked) [compound 7] | – | 1700 nM | 3500 nM | – | – | – | – | –
3 | CC(=O)N(O)CCC(c1cccnc1)P(=O)(O)O (centres unmarked) [5m] | – | 310 nM | 440 nM | – | 630 nM | – | – | –
4 | O=CN(O)CCC(c1cccnc1)P(=O)(O)O (centres unmarked) [4m] | – | 180 nM | 340 nM | – | – | – | – | –
5 | O=CN(O)CCC(c1ccncc1)P(=O)(O)O (centres unmarked) [4p] | – | 170 nM | 180 nM | – | – | – | – | –
6 | CCN(CC)CCCC(C)Nc1ccnc2cc(Cl)ccc12 (centres unmarked) [CQ, chloroquine, reference compound] | – | 120 nM | 21 nM | – | – | – | – | –
7 | O=CN(O)CCCP(=O)(O)O [compound 1, Fosmidomycin] | – | 440 nM | 1170 nM | – | – | poor | ~ 1 h | effective against P. falciparum malaria
